Tests used:
[1] = system: J6/JFH1 (HCV genotype 2a recombinant); assay: High-throughput DAA treatment assay of infected Huh7.5 cells, J6/JFH1 virus; type: cell-based; conditions: Hepatitis C virus, first-passage 2a J6/JFH1 stock, read-out: EC50 against J6/JFH1
Protocol: (§1) Huh7.5 cells in 96-well culture plates were infected with 5′UTR-NS5A specific genotype(isolate) recombinants. For details on the 5-5A virus stocks see FIG. 3. J6/JFH1 was a first-passage stock with no mutations in the ORF. Cultures were treated with seven protease inhibitors and the NS5A inhibitor daclatasvir. Values are means of triplicates in the experiment with ±SEM.
(§2) HCV DAAs were purchased from Acme Bioscience and dissolved in dimethyl sulfoxide (Sigma). High throughput treatment assays have been previously established. Concentration-response curves, EC50 values, and 95% confidence interval were calculated in GraphPad Prism 5 as described. Cytotoxicity assays to determine the non-cytotoxic dose range of the anti-HCV drugs were performed.
(§3) Since no mutations appeared in the NS3 protease region in first-passage 5-5A recombinants, these culture viruses could be ideal models for studying the efficacy of PIs in a genotype-specific manner. We thus generated virus stocks from first-passage 1a(H77 and TN) and second-passage 3a(S52), 4a(ED43), 5a(SA13), and 6a(HK6a) 5-5A viruses (FIG. 3) for PI treatment experiments. Additionally, we generated a first-passage stock of 2a J6/JFH1. We confirmed that virus stocks used for treatment were without NS3 protease mutations (FIGS. 5-9). We tested virus sensitivity to the most advanced PIs: telaprevir (VX-950), boceprevir (SCH503034), asunaprevir (BMS-650032), simeprevir (TMC435350), vaniprevir (MK-7009), faldaprevir (BI201335), and MK-5172. […] The median effective concentration (EC50) representing the efficacy of drugs against the treated viruses was calculated from the concentration-response curves (FIGS. 2, 4 and 10). For a given inhibitor, EC50 fold-differences relative to J6/JFH1 were calculated for each genotype recombinant and used to describe whether a recombinant was more sensitive (fold-difference <1) or resistant (fold-difference >1) than J6/JFH1.

[2] = system: 1a(H77) 5'UTR-NS5A recombinant virus; assay: High-throughput DAA treatment assay of infected Huh7.5 cells, 1a(H77)5-5A virus; type: cell-based, hepatitis C virus; conditions: for EC50 fold-difference relative to J6/JFH1, more sensitive: 1a(H77)5-5A virus more sensitive than J6/JFH1; for EC50 fold-difference from J6/JFH1: 1a(H77)5-5A virus, difference in sensitivity compared to J6/JFH1
Protocol: as §1, §2, §3

[3] = system: 1a(TN) 5'UTR-NS5A recombinant virus; assay: High-throughput DAA treatment assay of infected Huh7.5 cells, 1a(TN)5-5A virus; type: cell-based, hepatitis C virus; conditions: for EC50 fold-difference from J6/JFH1: 1a(TN)5-5A virus, difference in sensitivity compared to J6/JFH1; for EC50 fold-difference relative to J6/JFH1, more sensitive: 1a(TN)5-5A virus more sensitive than J6/JFH1
Protocol: as §1, §2, §3

[4] = system: 3a(S52) 5'UTR-NS5A recombinant virus; assay: High-throughput DAA treatment assay of infected Huh7.5 cells, 3a(S52)5-5A virus; type: cell-based, hepatitis C virus; conditions: 3a(S52)5-5A virus more resistant (less sensitive) than J6/JFH1
Protocol: as §1, §2, §3

[5] = system: 4a(ED43) 5'UTR-NS5A recombinant virus; assay: High-throughput DAA treatment assay of infected Huh7.5 cells, 4a(ED43)5-5A virus; type: cell-based, hepatitis C virus; conditions: for EC50 fold-difference relative to J6/JFH1, more sensitive: 4a(ED43)5-5A virus more sensitive than J6/JFH1; for EC50 fold-difference relative to J6/JFH1, more resistant: 4a(ED43)5-5A virus more resistant than J6/JFH1
Protocol: as §1, §2, §3

[6] = system: 5a(SA13) 5'UTR-NS5A recombinant virus; assay: High-throughput DAA treatment assay of infected Huh7.5 cells, 5a(SA13)5-5A virus; type: cell-based, hepatitis C virus; conditions: for EC50 fold-difference from J6/JFH1: 5a(SA13)5-5A virus, difference in sensitivity compared to J6/JFH1; for EC50 fold-difference relative to J6/JFH1, more sensitive: 5a(SA13)5-5A virus more sensitive than J6/JFH1
Protocol: as §1, §2, §3

[7] = system: 6a(HK6a) 5'UTR-NS5A recombinant virus; assay: High-throughput DAA treatment assay of infected Huh7.5 cells, 6a(HK6a)5-5A virus; type: cell-based, hepatitis C virus; conditions: for EC50 fold-difference from J6/JFH1: 6a(HK6a)5-5A virus, difference in sensitivity compared to J6/JFH1; for EC50 fold-difference relative to J6/JFH1, more sensitive: 6a(HK6a)5-5A virus more sensitive than J6/JFH1
Protocol: as §1, §2, §3

[8] = system: HCV genotype 1-6 recombinant viruses; assay: High-throughput DAA treatment assay of infected Huh7.5 cells, whole panel of genotype 1-6 recombinant viruses; type: cell-based, hepatitis C virus; conditions: for Inhibition of genotype 1-6 recombinant viruses: infected Huh7.5 cells, concentration-response
Protocol: as §1, §2, §3

SMILES | EC50 [1] [µM] | EC50 fold-difference relative to J6/JFH1, more sensitive [2] | EC50 fold-difference from J6/JFH1 [3] | EC50 fold-difference relative to J6/JFH1, more resistant [4] [fold] | EC50 fold-difference relative to J6/JFH1, more sensitive [5] [fold] | EC50 fold-difference from J6/JFH1 [6] | EC50 fold-difference from J6/JFH1 [7] | Inhibition of genotype 1-6 recombinant viruses [8] | EC50 fold-difference from J6/JFH1 [2] | EC50 fold-difference from J6/JFH1 ([5]; 4a(ED43)5-5A virus, difference in sensitivity compared to J6/JFH1) | Potency relative to the other tested DAAs ([8]; all genotype recombinant viruses) | EC50 fold-difference relative to J6/JFH1, more resistant [5] [fold] | EC50 fold-difference relative to J6/JFH1, more sensitive [7] | EC50 fold-difference relative to J6/JFH1, more sensitive [3] | EC50 fold-difference relative to J6/JFH1, more sensitive [6]
COc1ccc2c(O[C@@H]3C[C@H]4C(=O)N[C@]5(C(=O)NS(=O)(=O)C6CC6)C[C@H]5/C=C\CCCCN(C)C(=O)[C@@H]4C3)cc(-c3nc(C(C)C)cs3)nc2c1C [simeprevir] | 0.091 | ~10 fold | less than 2 fold | ~27 | ~10 | less than 2 fold | less than 2 fold | concentration-dependently inhibited |  |  |  |  |  |  | 
C=C[C@@H]1C[C@]1(NC(=O)[C@@H]1C[C@@H]2CN1C(=O)[C@H](C(C)(C)C)NC(=O)O[C@@H]1C[C@H]1CCCCCc1nc3ccc(OC)cc3nc1O2)C(=O)NS(=O)(=O)C1CC1 [MK-5172] |  |  | less than 2 fold | ~13 |  | less than 2 fold | less than 2 fold | concentration-dependently inhibited | less than 2 fold | less than 2 fold | the most potent PI with broad activity against HCV genotypes 1-6 |  |  |  | 
CCC[C@H](NC(=O)[C@@H]1[C@H]2CCC[C@H]2CN1C(=O)[C@@H](NC(=O)[C@@H](NC(=O)c1cnccn1)C1CCCCC1)C(C)(C)C)C(=O)C(=O)NC1CC1 [telaprevir] | 0.493 |  |  | ~4 |  |  |  |  |  |  |  | ~4 | ~4 fold |  | 
C=C[C@@H]1C[C@]1(NC(=O)[C@@H]1C[C@@H](Oc2ncc(OC)c3ccc(Cl)cc23)CN1C(=O)[C@@H](NC(=O)OC(C)(C)C)C(C)(C)C)C(=O)NS(=O)(=O)C1CC1 [asunaprevir] | 0.159 | ~5 fold |  | ~13 | ~5 |  |  | concentration-dependently inhibited |  |  |  |  | 2-3 fold | 2-3 fold | 2-3 fold
COC(=O)N[C@H](C(=O)N1CCC[C@H]1c1nc(-c2ccc(-c3ccc(-c4c[nH]c([C@@H]5CCCN5C(=O)[C@@H](NC(=O)OC)C(C)C)n4)cc3)cc2)c[nH]1)C(C)C [daclatasvir] |  |  | < 3 fold | ~6 | ~5 | < 3 fold | < 3 fold |  | < 3 fold |  |  |  |  |  | 
CC[C@@H]1C[C@]1(NC(=O)[C@@H]1C[C@@H]2CN1C(=O)[C@H](C(C)(C)C)NC(=O)OCC(C)(C)CCCCc1cccc3c1CN(C3)C(=O)O2)C(=O)NS(=O)(=O)C1CC1 [vaniprevir] | 0.088 | 3-6 fold |  | ~22 | ~10 |  |  | concentration-dependently inhibited |  |  |  |  | 3-6 fold | 3-6 fold | 3-6 fold
C=C[C@@H]1C[C@]1(NC(=O)[C@@H]1C[C@@H](Oc2cc(-c3csc(NC(=O)C(C)C)n3)nc3c(Br)c(OC)ccc23)CN1C(=O)[C@@H](NC(=O)OC1CCCC1)C(C)(C)C)C(=O)O [faldaprevir] |  | ~12 fold |  | ~17 | ~44 |  |  | concentration-dependently inhibited |  |  |  |  | ~4 fold | ~4 fold | ~10 fold
CC(C)(C)NC(=O)N[C@H](C(=O)N1C[C@H]2[C@@H]([C@H]1C(=O)NC(CC1CCC1)C(=O)C(N)=O)C2(C)C)C(C)(C)C (some centres unmarked) [boceprevir] | 0.589 |  |  | ~2 |  |  |  |  |  |  |  | ~2 | ~4 fold |  | 

From patent US10106783B2, “HCV culture systems and direct-acting antiviral sensitivity” (Hvidovre Hospital, priority 2013, dated 2018)
